Measured values as given in patent publication US20060111342A1, “Insecticidal tricyclic derivatives” (priority 2002, published 2006).

System: cotton aphid (Aphis gossypii)
Assay: Cotton aphid test in the same manner, more definitive percent mortality at selected rates and exposure times (Table 3)
Type: in vivo
Settings: 100 ppm; 72 hours exposure
Description: The compounds of formula I useful in the present invention were tested for insecticidal activity by observing mortality in a population of cotton aphid (Aphis gossypii) on treated cotton plants caused by a test compound, when compared to like populations of cotton aphid on untreated plants. These tests were conducted in the following manner:
For each rate of application of test compound, two seven-to-ten days old cotton seedlings (Gossypium hirsutium) grown in 7.6 cm diameter pots were selected for the test. Each test plant was infested with about 120 adult cotton aphids by placing onto each test plant cuttings of leaves from cotton plants grown in a cotton aphid colony. Once infested, the test plants were maintained for up to about 12 hours to allow complete translocation of the aphids onto the test plant. A solution comprising 1000 part per million (ppm) of each test compound was prepared by dissolving 10 milligrams of the test compound in 1 mL of acetone. Each solution was then diluted with 9 mL of a solution of 0.03 mL of polyoxyethylene(10) isooctylphenyl ether in 100 mL of water. About 2.5 mL of solution of each test compound was needed to spray each replicate of test plant (5 mL total for each test compound). If needed, the solution of 1000 ppm of test compound was serially diluted with a solution of 10% acetone and 300 ppm of polyoxyethylene(10) isooctylphenyl ether in water to provide solutions of each test compound for lower rates of application, for example, 300 ppm, 100 ppm, 30 ppm, or 10 ppm. Each replicate of test plant was sprayed with the solutions of test compound until run-off on both the upper and lower surfaces of the leaves. All the test plants were sprayed using a DeVilbus Atomizer Model 152 (Sunrise Medical, Carlsbad, Calif.) at a pressure of about 0.63-0.74 kilogram per square centimeter from a distance of about 30.5 centimeters from the test plants. For comparison purposes, a solution of a standard, such as amitraz or demethylchlordimeform (DCDM), prepared in a manner analogous to that set forth above, as well as a solution of 10% acetone and 300 ppm of polyoxyethylene(10) isooctylphenyl ether in water containing no test compound were also sprayed onto test plants. Upon completion of spraying the solutions of test compound, the solution of standard, and the solution containing no test compound, the plants were allowed to dry. […] After this time, each plant was assessed for percent mortality caused by the test compound when compared to the population of aphids that was infested onto the test plants prior to treatment with test compound. […] If there was 75% mortality or greater of the cotton aphid, a test compound was designated as being more insecticidally active (A).
In a test conducted in the same manner as set forth above, certain compounds of formula I were tested to determine a more definitive percent mortality of cotton aphid.

SMILES	Percent Mortality of Cotton Aphid on Cotton Plants
CN1CCC(=C2c3ccccc3Oc3ccc(F)cc32)CC1 [Compound 9]	26%
CCc1ccc2c(c1)C(=C1CCN(C)CC1)c1ccccc1O2 [Compound 12]	26%
CCOC(=O)CCN1CCC(=C2c3ccccc3Oc3ccccc32)CC1 [Compound 20]	37%
CN1CCC(=C2c3ccccc3COc3ccccc32)CC1.Cl [Compound 26]	84%
CN1CCN(C2Cc3cc(Cl)ccc3Sc3cc(Cl)ccc32)CC1 (stereo not shown) [Compound 92]	48%
CN1CCN(C2Cc3ccccc3Sc3c(F)ccc(F)c32)CC1 (stereo not shown) [Compound 97]	65%
COc1ccc2c(c1)Sc1ccccc1CC2N1CCN(C)CC1 (stereo not shown) [Compound 101]	60%
COc1cccc2c1Sc1ccccc1CC2N1CCN(C)CC1 (stereo not shown) [Compound 102]	33%
Cc1cc2c(cc1F)Sc1ccccc1CC2N1CCN(C)CC1 (stereo not shown) [Compound 111]	94%
CN1CCN(C2Cc3ccccc3Sc3cccc(C4CC4)c32)CC1 (stereo not shown) [Compound 112]	92%
CN1CCN(C2Cc3ccccc3Sc3ccc(C4CCCC4)cc32)CC1 (stereo not shown) [Compound 113]	78%
CC(=O)c1ccc2c(c1)C(N1CCN(C)CC1)Cc1ccccc1S2 (stereo not shown) [Compound 115]	93%
CN1CCN(C2Cc3cc(F)ccc3Sc3ccccc32)CC1 (stereo not shown) [Compound 118]	85%
CN1CCN(C2Cc3ccc(F)cc3Sc3ccccc32)CC1 (stereo not shown) [Compound 119]	85%
CSc1ccc2c(c1)C(N1CCN(C)CC1)Cc1cc(F)ccc1S2 (stereo not shown) [Compound 122]	88%
CSc1ccc2c(c1)C(N1CCN(C)CC1)Cc1ccc(F)cc1S2 (stereo not shown) [Compound 123]	96%
CCSc1ccc2c(c1)C(N1CCN(C)CC1)Cc1ccc(F)cc1S2 (stereo not shown) [Compound 124]	95%
CN1CCN(C2Cc3ccc(F)cc3Sc3ccc(C(F)(F)F)cc32)CC1.O=C(O)/C=C\C(=O)O.O=C(O)/C=C\C(=O)O (stereo not shown) [Compound 125]	90%
CC(C)c1ccc2c(c1)C(N1CCN(C)CC1)Cc1ccc(F)cc1S2.O=C(O)/C=C\C(=O)O (stereo not shown) [Compound 128]	95%

Same assay, conditions: 100 ppm; 96 hours exposure

SMILES	Percent Mortality of Cotton Aphid on Cotton Plants
CC(C)N1CCC(=C2c3ccccc3Sc3ccccc32)CC1 [Compound 3]	80%
CN1CCC(=C2c3ccccc3Oc3c(F)cccc32)CC1 [Compound 11]	42%
CN1CCC(=C2c3ccccc3Oc3ccc(C(F)(F)F)cc32)CC1 [Compound 15]	28%

Same assay, conditions: 100 ppm; 168 hours exposure

SMILES	Percent Mortality of Cotton Aphid on Cotton Plants
CN1CCN(C2Cc3ccccc3Oc3ccc(Cl)cc32)CC1 (stereo not shown) [Compound 64]	74%
CN1CCN(C2Cc3ccccc3Oc3ccc(Br)cc32)CC1 (stereo not shown) [Compound 65]	100%
CN1CCN(C2Cc3ccccc3Oc3ccc(F)cc32)CC1 (stereo not shown) [Compound 66]	61%
CN1CCN(C2Cc3ccccc3Oc3ccc(I)cc32)CC1 (stereo not shown) [Compound 67]	75%
CN1CCN(C2Cc3ccccc3Oc3ccc(C(F)(F)F)cc32)CC1 (stereo not shown) [Compound 69]	69%
CSc1ccc2c(c1)C(N1CCN(C)CC1)Cc1ccccc1O2 (stereo not shown) [Compound 70]	57%
CN1CCN(C2Cc3ccccc3Oc3ccc(OC(F)(F)F)cc32)CC1 (stereo not shown) [Compound 71]	100%
C[N+]1([O-])CCN(C2Cc3ccccc3Oc3ccc(OC(F)(F)F)cc32)CC1 (stereo not shown) [Compound 72]	100%
CN1CCN(C2Cc3ccccc3Oc3cc(OC(F)(F)F)ccc32)CC1 (stereo not shown) [Compound 73]	35%
CN1CCN(C2Cc3ccccc3Oc3ccc(SC(F)(F)F)cc32)CC1 (stereo not shown) [Compound 75]	86%
CN1CCN(C2Cc3ccccc3Oc3ccc([S+]([O-])C(F)(F)F)cc32)CC1 (stereo not shown) [Compound 76]	32%
CN1CCN(C2Cc3ccccc3Oc3ccc(S(=O)(=O)C(F)(F)F)cc32)CC1 (stereo not shown) [Compound 77]	37%
C=Cc1ccc2c(c1)C(N1CCN(C)CC1)Cc1ccccc1O2 (stereo not shown) [Compound 78]	53%
C#Cc1ccc2c(c1)C(N1CCN(C)CC1)Cc1ccccc1O2 (stereo not shown) [Compound 79]	35%
CN1CCN(C2Cc3ccccc3Oc3cc(Cl)c(Cl)cc32)CC1 (stereo not shown) [Compound 82]	98%
CN1CCN(C2Cc3ccccc3Oc3c(Cl)cc(Cl)cc32)CC1 (stereo not shown) [Compound 83]	41%
CN1CCN(C2Cc3ccccc3Oc3c(F)cc(Br)cc32)CC1 (stereo not shown) [Compound 88]	35%
Cc1cc(Br)cc2c1Oc1ccccc1CC2N1CCN(C)CC1 (stereo not shown) [Compound 89]	55%
CCc1ccc2c(c1)C(N1CCN(C)CC1)Cc1ccccc1S2.O=S(=O)(O)O (stereo not shown) [Compound 98]	90%
C[N+]1([O-])CCN(C2Cc3ccccc3Sc3ccc(OC(F)(F)F)cc32)CC1 (stereo not shown) [Compound 107]	82%
CN1CCN(C2Cc3ccc(F)cc3Sc3ccc(OC(F)(F)F)cc32)CC1 (stereo not shown) [Compound 126]	100%
CN1CCCN(C2Cc3ccccc3Oc3ccc(OC(F)(F)F)cc32)CC1 (stereo not shown) [Compound 186]	100%
CN1CCN(C2=Nc3ccccc3Sc3ccc(OC(F)(F)F)cc32)CC1 [Compound 194]	51%

Same assay, conditions: 300 ppm; 72 hours exposure

SMILES	Percent Mortality of Cotton Aphid on Cotton Plants
CCN(CC)CCOC1Cc2ccccc2Sc2ccc(OC(F)(F)F)cc21 (stereo not shown) [Compound 52]	100%

Same assay, conditions: 300 ppm; 168 hours exposure

SMILES	Percent Mortality of Cotton Aphid on Cotton Plants
CN1CCN(C2Cc3ccccc3Sc3c(F)cc(Cl)cc32)CC1.O=S(O)S(=O)(=O)O (stereo not shown) [Compound 96]	100%
CN1CCN(C2Cc3ccccc3Sc3c2ccc(Cl)c3Cl)CC1.O=C(O)/C=C\C(=O)O (stereo not shown) [Compound 110]	65%

Same assay, conditions: 1000 ppm; 72 hours exposure

SMILES	Percent Mortality of Cotton Aphid on Cotton Plants
CN1CCN(C2Cc3ccccc3Sc3c(F)cccc32)CC1 (stereo not shown) [Compound 94]	100%
CN1CCN(C2Cc3ccccc3Sc3cc(F)c(Cl)cc32)CC1 (stereo not shown) [Compound 95]	82%
CSc1ccc2c(c1)C(N1CCN(C)CC1)Cc1ccccc1S2.O=C(O)/C=C\C(=O)O (stereo not shown) [Compound 103]	90%
CN1CCN(C2Cc3cc(F)ccc3Sc3ccc(Cl)cc32)CC1 (stereo not shown) [Compound 121]	65%

Same assay, conditions: 1000 ppm; 96 hours exposure

SMILES	Percent Mortality of Cotton Aphid on Cotton Plants
CN1CCN(C2Cc3ccccc3Sc3ccc(C(F)(F)F)cc32)CC1 (stereo not shown) [Compound 105]	85%
CSc1ccc2c(c1)C(N1CCN(Cc3ccncc3)CC1)Cc1ccccc1S2 (stereo not shown) [Compound 173]	82%

Same assay, conditions: 1000 ppm; 168 hours exposure

SMILES	Percent Mortality of Cotton Aphid on Cotton Plants
CN1CCN(C2Cc3ccccc3Oc3ccc(C#C[Si](C)(C)C)cc32)CC1 (stereo not shown) [Compound 80]	83%
CN1CCN(C2Cc3ccccc3Oc3c(F)cc(Cl)cc32)CC1 (stereo not shown) [Compound 85]	92%
CN1CCN(C2Cc3ccccc3Oc3c(Cl)cc(F)cc32)CC1 (stereo not shown) [Compound 87]	97%
CN1CCN(C2Cc3ccccc3Sc3ccccc32)CC1.O=C(O)/C=C\C(=O)O (stereo not shown) [Compound 90]	74%
CN1CCN(C2Cc3ccc(F)cc3Sc3ccc(OC(F)(F)F)cc32)CC1 (stereo not shown) [Compound 108]	100%
CN1CCN(C2Cc3ccccc3Sc3ccc(OC(F)(F)C(F)F)cc32)CC1 (stereo not shown) [Compound 109]	100%
CC(C)c1ccc2c(c1)C(N1CCN(C)CC1)Cc1ccc(F)cc1S2 (stereo not shown) [Compound 127]	100%
CSc1ccc2c(c1)C(N1CCCN(C)CC1)Cc1ccccc1S2 (stereo not shown) [Compound 183]	100%
CN1CCCN(C2Cc3ccccc3Sc3ccc(OC(F)(F)F)cc32)CC1 (stereo not shown) [Compound 185]	100%
CN1CCN(C2=Nc3ccccc3Sc3ccc(Cl)cc32)CC1 [Compound 189]	55%
